Measurements from patent US9603922B2, “Modulation of NKT cell activity with antigen-loaded CD1d molecules” (VACCINEX, INC., priority 2007, dated 2017).

Experiments:
iNKT cells [1] = test: Activity in vivo of ceramide-like glycolipid antigens, serum cytokine response (Table 3); settings: serum cytokines
From the text: In vivo assays also may be suitably employed to determine the ability of a composition of the invention to modulate the activity of NKT cells. For example, a composition of interest can be assayed for its ability to stimulate NKT cell activation or inhibit tumor growth. For example, a composition of the invention can be administered to a mammal such as a mouse, before or after challenge with a tumorigenic dose of transformed cells and the presence or size of growing tumors may be monitored.

mouse iNKT hybridoma = test: iNKT hybridoma stimulation assay (Table 3 comments); format: cell-based
From the text: (§1) The ability of a composition of the present invention to modulate an immune response can be readily determined by an in vitro assay. NKT cells for use in the assays include transformed NKT cell lines, or NKT cells which are isolated from a mammal, e.g., from a human or from a rodent such as a mouse. NKT cells can be isolated from a mammal by sorting cells that bind CD1d:α-GalCer tetramers. See, for example, Benlagha et al., J Exp Med 191 (2000), pp. 1895-1903; Matsuda et al., J Exp Med 192 (2000), pp. 741-754; and Karadimitris et al., Proc Natl Acad Sci USA 98 (2001), pp. 3294-3298. A suitable assay to determine if a compound of the present invention is capable of modulating the activity of NKT cells is conducted by coculturing NKT cells and antigen presenting cells, adding the particular compound of interest to the culture medium that targets either the antigen presenting cells or the NKT cells directly, and measuring IL-4 or IFN-γ production. A significant increase or decrease in IL-4 or IFN-γ production over the same co-culture of cells in the absence of the compound of the invention or, preferably, in the presence of a compound of the invention with a non-targeting antibody indicates stimulation or inhibition of NKT cells.
The NKT cells employed in the assays are incubated under conditions suitable for proliferation. For example, an NKT cell hybridoma is suitably incubated at about 37° C. and 5% CO2 in complete culture medium (RPMI 1640 supplemented with 10% FBS, penicillin/streptomycin, L-glutamine and 5×10−5 M 2-mercaptoethanol). Serial dilutions of the compound can be added to the NKT cell culture medium.

splenocytes = test: Splenocyte stimulation assay: proliferation and cytokine secretion (Table 3 comments); format: cell-based, mouse; settings: for Comments: cytokine secretion (IL-4, IFNγ): cytokine secretion assays; for Comments: IL-4 relative to IFNγ: in vitro with splenocytes from NZB/W F1 mice
From the text: as §1
(§2) Alternatively, rather than measurement of an expressed protein such as IL-4 or IFN-γ, modulation of NKT cell activation can be determined by changes in antigen-dependent T cell proliferation as measured by radiolabelling techniques as are recognized in the art. For example, a labeled (e.g., tritiated) nucleotide may be introduced to an assay culture medium. Incorporation of such a tagged nucleotide into DNA serves as a measure of T cell proliferation. […] A difference in the level of T cell proliferation following contact with the compound of the invention indicates the complex modulates activity of the T cells. For example, a decrease in NKT cell proliferation indicates the compound can suppress an immune response. An increase in NKT cell proliferation indicates the compound can stimulate an immune response.

[2] = tested on: mouse iNKT hybridoma / human CD1d + HeLa cells; test: Presentation to mouse iNKT hybridoma by human CD1d + HeLa cells (Table 3 comments); format: cell-based
iNKT cells [3] = test: Activity in vitro of ceramide-like glycolipid antigens (Table 3); format: cell-based, mouse; settings: partly also in vivo
Procedure: The ability of a composition of the present invention to modulate an immune response can be readily determined by an in vitro assay. NKT cells for use in the assays include transformed NKT cell lines, or NKT cells which are isolated from a mammal, e.g., from a human or from a rodent such as a mouse. NKT cells can be isolated from a mammal by sorting cells that bind CD1d:α-GalCer tetramers.
The NKT cells employed in the assays are incubated under conditions suitable for proliferation. […] Serial dilutions of the compound can be added to the NKT cell culture medium.
as §2

iNKT cells [4] = settings: reported by others, in vivo IFNγ; cited from earlier work
human iNKT cells = test: Recognition by human iNKT cells (Table 3 comments); format: cell-based
SLE in NZB/W F1 mice = SLE in NZB/W F1 mice (Table 3 comments); format: in vivo, mouse

Structure (SMILES): CCCCCCCCCCCCCC[C@@H](O)[C@@H](O)[C@H](COC1OC(CO)C(O)C(O)C1O)NC(=O)CCCCCCCCC (stereo partly drawn) [YTC03-34]
- Comments: in vivo cytokine response in words (iNKT cells [1]): Active in vivo with good IL-4 production assoc. with weak IFNgamma and weak IL-12 p70
- Comments: activity in iNKT hybridoma stimulation assay (mouse iNKT hybridoma): Moderate activity with mouse iNKT hybridoma

Structure (SMILES): CCCCCCCCCCCCCCCCCCCCCCCCCC(=O)N[C@@H](COC1OC(C)[C@@H](O)C(O)C1O)[C@H](O)[C@H](O)CCCCCCCCCCCCCC (stereo partly drawn) [DB06-14]
- Comments: cytokine secretion (IL-4, IFNγ) (splenocytes): moderate IL-4 secretion at high concentration with weak IFNg
- Comments: activity in splenocyte stimulation assay (splenocytes; overall activity): Weakly active in splenocyte stimulation in vitro
- Comments: splenocyte proliferation (splenocytes): Minimal or no prolif

Structure (SMILES): CCCCCCCCCCCCCC[C@@H](O)[C@@H](O)[C@H](COC1OC(CO)C(O)C(O)C1O)NC(=O)Cc1ccc(F)cc1 (stereo partly drawn) [YTC03-30]
- Comments: activity when presented to mouse iNKT hybridoma by human CD1d + HeLa cells [2]: EXTREMELY active
- Comments: IL-4 relative to IFNγ (splenocytes): Possible enhanced IL-4 relative to IFNγ

Structure (SMILES): CCCCC/C=C\C/C=C\CCCCCCCCCC(=O)N[C@@H](COC1OC(CO)C(O)C(O)C1O)[C@H](O)[C@H](O)CCCCCCCCCCCCCC (stereo partly drawn) [DB06-15]
- Comments: cytokine secretion (IL-4, IFNγ) (splenocytes): Weak IL-4 and even weaker INFg secretion
- Comments: splenocyte proliferation (splenocytes): Moderately active in splenocyte prolif

Structure (SMILES): CCCC/C=C\C/C=C\CCCCCCCCCC(=O)N[C@@H](COC1OC(CO)C(O)C(O)C1O)[C@H](O)[C@H](O)CCCCCCCCCCCCCC (stereo partly drawn) [DB03-4]
- Comments: iNKT agonist activity and cytokine profile in words (iNKT cells [3]): “Type 2 Cytokine bias”: Strong inducer of iNKT cell IL-4 response, with blunted IFNγ and NK cell transactivation.

Structure (SMILES): CCCCCCCCCCCCCCCCCCCCCCCC(=O)N[C@@H](COC1OC(CO)C(O)C(O)C1O)[C@H](O)[C@H](O)CCCCCCCCCCCCCC (stereo partly drawn) [DB02-1]
- Comments: iNKT agonist activity and cytokine profile in words (iNKT cells [3]): Moderate to weak iNKT agonist in vitro and in vivo. Gives reasonably strong early IL-4 response, with reduced late IFNγ like DB03-4 or OCH.

Structure (SMILES): CCCCCCCCCCCCCCCCCCCCCCCCCC(=O)N[C@@H](CSC1OC(CO)C(O)C(O)C1O)[C@H](O)[C@H](O)CCCCCCCCCCCCCC (stereo partly drawn) [SKRN 7000, reference compound]
- Comments: activity in iNKT hybridoma stimulation assay (mouse iNKT hybridoma): No agonist activity in iNKT hybridoma assay
- Comments: autoreactivity of iNKT cell hybridoma (mouse iNKT hybridoma): seemed to reduce autoreactivity of iNKT cell hybridoma

Structure (SMILES): CCCCC/C=C\C=C\CCCCCCCCC(=O)N[C@@H](COC1OC(CO)C(O)C(O)C1O)[C@H](O)[C@H](O)CCCCCCCCCCCCCC (stereo partly drawn) [DB05-9]
- Comments: iNKT agonist activity and cytokine profile in words (iNKT cells [3]): A potent Th2-biased agonist in vitro. Not tested yet in vivo (122206)

Structure (SMILES): CCCCCCCCCCCCCC[C@@H](O)[C@@H](O)[C@H](COC1OC(CO)C(O)C(O)C1O)NC(=O)Cc1ccc(OC)c(OC)c1 (stereo partly drawn) [YTC03-24]
- Comments: IL-4 relative to IFNγ (splenocytes): Possible enhanced IL-4 relative to IFNγ in vitro with splenocytes from NZB/W F1 mice

Structure (SMILES): CCCCCC/C=C\C=C/CCCCCCCC(=O)N[C@@H](COC1OC(CO)C(O)C(O)C1O)[C@H](O)[C@H](O)CCCCCCCCCCCCCC (stereo partly drawn) [DB05-11]
- Comments: splenocyte proliferation (splenocytes): possibly more active in proliferation assay
- Comments: iNKT agonist activity and cytokine profile in words (iNKT cells [3]): A potent Th2-biased analogue similar to DB05-9

Structure (SMILES): CCCCCCCCCCCCCCCCCC(=O)N[C@@H](COC1OC(CO)C(O)C(O)C1O)[C@H](O)[C@H](O)CCCCCCCCCCCCCC (stereo partly drawn) [YTC03-15]
- Comments: activity when presented to mouse iNKT hybridoma by human CD1d + HeLa cells [2]: EXTREMELY active when presented to mouse iNKT hybridoma by human CD1d + HeLa cells

Structure (SMILES): CCCCC\C=C/C=C/C=C/CCCCCCC(=O)N[C@@H](COC1OC(CO)C(O)C(O)C1O)[C@H](O)[C@H](O)CCCCCCCCCCCCCC (stereo partly drawn) [DB05-14]
- Comments: cytokine secretion (IL-4, IFNγ) (splenocytes): strong IL-4 secretion bias
- Comments: splenocyte proliferation (splenocytes): Very active in prolif

Structure (SMILES): CCCCCCCCCCCCCC[C@@H](O)[C@@H](O)[C@H](COC1OC(CO)C(O)C(O)C1O)NC(=O)C(c1ccccc1)c1ccccc1 (stereo partly drawn) [YTC03-17]
- Comments: in vivo cytokine response in words (iNKT cells [1]): no activity detectable in vivo (cytokine stimulation)
- Comments: iNKT agonist activity and cytokine profile in words (iNKT cells [3]): Very strong agonist in some in vitro studies

Structure (SMILES): CCCCC/C=C\C/C=C\C/C=C\C/C=C\CCCC(=O)N[C@@H](COC1OC(CO)C(O)C(O)C1O)[C@H](O)[C@H](O)CCCCCCCCCCCCCC (stereo partly drawn) [DB03-5]
- Comments: iNKT agonist activity and cytokine profile in words (iNKT cells [3]): “Type 2 Cytokine bias”: Strong inducer of iNKT cell IL-4 response, with blunted IFNγ and NK cell transactivation.

Structure (SMILES): CCCCCCCCCCCCCCCCCCCCCCCC(=O)N[C@@H](COC1OC(CO)C(O)C(O)C1O)[C@H](O)CCCCCC (stereo partly drawn) [AH04-2]
- Comments: activity in iNKT hybridoma stimulation assay (mouse iNKT hybridoma): About a half log more potent than OCH in hybridoma stimulation assay

Structure (SMILES): CCCCCCCCCCCCCCCCCCCCCCCCCC(=O)N[C@@H](COC1OC(CO)C(O)C(O)C1O)[C@H](O)[C@H](O)CCCCCCCCCCCCCC (stereo partly drawn) [DB04-1 (KRN 7000), reference compound]
- Comments: iNKT agonist activity and cytokine profile in words (iNKT cells [3]): KRN7000. Strong agonist, mixed IL-4 and IFNγ response both in vivo and in vitro.

Structure (SMILES): CCCCCCCCCCCCCCCCCCCCCCCCCC(=O)N[C@@H](CCC1OC(CO)C(O)C(O)C1O)[C@H](O)[C@H](O)CCCCCCCCCCCCCC (stereo partly drawn) [RF03-1]
- Comments: reported agonist activity (iNKT cells [4]): C-glycoside of KRN7000. Reported to be strong agonist, with enhanced IFNγ production in vivo. May have slower kinetics of activation.

Structure (SMILES): CCCCCCCCCCCCCCCCCCCCCCCC(=O)N[C@@H](COC1OC(CO)C(O)C(O)C1O)[C@H](O)[C@H](O)CCCCC (stereo partly drawn) [AH04-1, reference compound]
- Comments: recognition by human iNKT cells (human iNKT cells): seems NOT to be recognized by human iNKT cells
- Comments: iNKT agonist activity and cytokine profile in words (iNKT cells [3]): Weaker agonist than DB03-4 in our hands, and skewing of cytokine response not very impressive in most assays

Structure (SMILES): CCCCCCCCCCCCCCCCCCCCCCCC(=O)N[C@@H](COC1OC(C)[C@@H](O)C(O)C1O)[C@H](O)[C@H](O)CCCCCCCCCCCCCC (stereo partly drawn) [DB03-8]
- Comments: effect on SLE (SLE in NZB/W F1 mice): exacerbates SLE in NZB/W F1 mice
- Comments: in vivo cytokine response in words (iNKT cells [1]): No serum cytokine response in vivo
- Comments: iNKT agonist activity and cytokine profile in words (iNKT cells [3]): Weak iNKT agonist activity in vitro

Structure (SMILES): CCCC/C=C/C=C/C=C\CCCCCCCC(=O)N[C@@H](COC1OC(CO)C(O)C(O)C1O)[C@H](O)[C@H](O)CCCCCCCCCCCCCC (stereo partly drawn) [DB05-17]
- Comments: cytokine secretion (IL-4, IFNγ) (splenocytes): moderately strong in cytokine secretion assays with moderate IL-4 predominance
- Comments: splenocyte proliferation (splenocytes): Weak in splenocyte prolif
